Assay results from the NIST ThermoML archive (doi:10.1021/je700308j).
Numbers after ± are expanded uncertainties.

Assays:
[1] = excess molar enthalpy (molar enthalpy of mixing); xn = mol fraction of the nth substance listed; settings: 298.15 K, 101 kPa, Liquid, Flow calorimetry
[2] = heat capacity at constant pressure per volume; xn = mol fraction of the nth substance listed; settings: 298.15 K, 101 kPa, Liquid, Flow calorimetry
[3] = xn = mol fraction of the nth substance listed; settings: 298.15 K, 101 kPa, Liquid

CCCCCCCCC [nonane] + C1CCOC1
[1]
Settings | excess molar enthalpy [kJ/mol]
x2 = 0.104 | 0.299 ± 0.0048
x2 = 0.197 | 0.517 ± 0.008
x2 = 0.355 | 0.79 ± 0.011
x2 = 0.485 | 0.892 ± 0.011
x2 = 0.595 | 0.889 ± 0.011
x2 = 0.688 | 0.818 ± 0.013
x2 = 0.768 | 0.706 ± 0.016
x2 = 0.837 | 0.562 ± 0.021
x2 = 0.898 | 0.407 ± 0.028
x2 = 0.952 | 0.215

C1CCOC1 [tetrahydrofuran] + CCCCCCCCO
Settings | heat capacity, [2] [J/K/m3] | mass density, [3] [kg/m3]
x1 = 0.0608 | 1927000 ± 4000 | 823.33 ± 0.42
x1 = 0.088 | 1918000 ± 4000 | 824.18 ± 0.41
x1 = 0.1954 | 1884000 ± 4000 | 827.86 ± 0.37
x1 = 0.3048 | 1850000 ± 4000 | 832.05 ± 0.35
x1 = 0.4026 | 1817000 ± 4000 | 836.34 ± 0.32
x1 = 0.5009 | 1781000 ± 4000 | 841.27 ± 0.3
x1 = 0.6069 | 1737000 ± 4000 | 847.37 ± 0.28
x1 = 0.7044 | 1691000 ± 3000 | 853.86 ± 0.26
x1 = 0.7994 | 1640000 ± 3000 | 861.36 ± 0.24
x1 = 0.9 | 1580000 ± 3000 | 870.65 ± 0.22
x1 = 0.9523 | 1546000 ± 3000 | 876.26 ± 0.22

C1CCOC1 [tetrahydrofuran] + CCCCO
Settings | heat capacity, [2] [J/K/m3] | mass density, [3] [kg/m3]
x1 = 0.0456 | 1918000 ± 4000 | 808.89 ± 0.28
x1 = 0.0951 | 1901000 ± 4000 | 812.34 ± 0.28
x1 = 0.1935 | 1867000 ± 4000 | 819.24 ± 0.27
x1 = 0.2997 | 1830000 ± 4000 | 826.84 ± 0.26
x1 = 0.3963 | 1794000 ± 4000 | 833.86 ± 0.26
x1 = 0.5009 | 1753000 ± 4000 | 841.67 ± 0.25
x1 = 0.5988 | 1711000 ± 3000 | 849.16 ± 0.24
x1 = 0.6962 | 1667000 ± 3000 | 856.68 ± 0.23
x1 = 0.8012 | 1615000 ± 3000 | 865.12 ± 0.22
x1 = 0.9017 | 1564000 ± 3000 | 873.45 ± 0.22
x1 = 0.9472 | 1541000 ± 3000 | 877.34 ± 0.21

C1CCOC1 [tetrahydrofuran] + CCCO
Settings | heat capacity, [2] [J/K/m3] | mass density, [3] [kg/m3]
x1 = 0.0482 | 1911000 ± 4000 | 804.27 ± 0.32
x1 = 0.103 | 1891000 ± 4000 | 809.19 ± 0.31
x1 = 0.1944 | 1858000 ± 4000 | 817.24 ± 0.3
x1 = 0.3022 | 1819000 ± 4000 | 826.44 ± 0.28
x1 = 0.3994 | 1782000 ± 4000 | 834.52 ± 0.27
x1 = 0.499 | 1742000 ± 4000 | 842.64 ± 0.26
x1 = 0.5994 | 1699000 ± 3000 | 850.66 ± 0.25
x1 = 0.7016 | 1654000 ± 3000 | 858.7 ± 0.24
x1 = 0.795 | 1610000 ± 3000 | 866.01 ± 0.23
x1 = 0.9017 | 1560000 ± 3000 | 874.29 ± 0.22
x1 = 0.9435 | 1541000 ± 3000 | 877.53 ± 0.21

C1CCOC1 [tetrahydrofuran] + CCO
Settings | heat capacity, [2] [J/K/m3] | mass density, [3] [kg/m3]
x1 = 0.0532 | 1907000 ± 4000 | 792.12 ± 17
x1 = 0.0989 | 1889000 ± 4000 | 798.14 ± 16
x1 = 0.2018 | 1849000 ± 4000 | 810.67 ± 13
x1 = 0.3084 | 1808000 ± 4000 | 822.54 ± 9.7
x1 = 0.4 | 1772000 ± 4000 | 832.02 ± 7.4
x1 = 0.5015 | 1731000 ± 4000 | 841.8 ± 5.2
x1 = 0.6074 | 1688000 ± 3000 | 851.3 ± 3.4
x1 = 0.711 | 1643000 ± 3000 | 860.02 ± 1.9
x1 = 0.8104 | 1599000 ± 3000 | 867.85 ± 0.98
x1 = 0.9048 | 1556000 ± 3000 | 875.03 ± 0.42
x1 = 0.9426 | 1540000 ± 3000 | 877.76 ± 0.29

C1CCOC1 [tetrahydrofuran] + CO
Settings | heat capacity, [2] [J/K/m3] | mass density, [3] [kg/m3]
x1 = 0.0989 | 1907000 ± 4000 | 804.78 ± 0.42
x1 = 0.195 | 1850000 ± 4000 | 819.46 ± 0.38
x1 = 0.2967 | 1797000 ± 4000 | 832.35 ± 0.35
x1 = 0.4006 | 1747000 ± 4000 | 843.35 ± 0.32
x1 = 0.4848 | 1714000 ± 3000 | 851 ± 0.29
x1 = 0.5999 | 1667000 ± 3000 | 859.93 ± 0.27
x1 = 0.6968 | 1631000 ± 3000 | 866.37 ± 0.25
x1 = 0.7926 | 1594000 ± 3000 | 871.94 ± 0.23
x1 = 0.8946 | 1555000 ± 3000 | 877.17 ± 0.22
